Measured values from patent US5118811A, “Amino acid derivatives possessing prolyl endopeptidase-inhibitory activities” (Japan Tobacco Inc., priority 1989, dated 1992).

Columns and labels:
elastase = target: T1, elastase (Sus scrofa, UniProt P00772); assay: Elastase-Inhibitory Activity; assay type: biochemical, swine; conditions: 1 × 10^-5 M; read-out: Inhibition rate, elastase
T1 construct: purchased Sigma; host or cells: swine pancreas
Description: Similarly, by following the procedure mentioned above, but employing a 1 mM Tris-HCl buffer (pH 8.5) as a buffer for measurement, a 0.2 μM solution of elastase (derived from swine pancreas, Sigma) in the same buffer as an enzyme solution and a 200 μM solution of 7-(N-succinyl-aranyl-prolyl-aranyl)-4-methylcoumarinamide (Peptide Institute, Inc.) in the same buffer as a substrate solution. Each fluorescence (e1, e2 and e3) was also determined, respectively.
(§1) Using the fluorescence x1, x2 and x3 measured in the above-mentioned manner, the inhibitory rate against various proteases was calculated by the following formula where x stands for b, c, d, e or f: [formula]

cathepsin B = target: T2, cathepsin B (Bos taurus, UniProt P07688); assay: Cathepsin B-Inhibitory Activity; assay type: biochemical, bovine; conditions: 1 × 10^-5 M; read-out: Inhibition rate, cathepsin B
T2 construct: purchased Sigma; host or cells: bovine spleen
Description: Similarly, by following the procedure mentioned above, but employing a 100 mM sodium phosphate buffer (pH 6.0; containing 1.33 mM EDTA Na2) as a buffer for measurement, a 0.02 μM solution of cathepsin B (derived from bovine spleen, Sigma) in the same buffer as an enzyme solution and a 200 μM solution of 7-(N-benzyloxycarbonyl-phenylaranyl-arginyl)-4-methylcoumarinamide (Peptide Institute, Inc.) in the same buffer as a substrate solution. Each fluorescence (f1, f2 and f3) was also determined, respectively.
as §1

chymotrypsin = target: T3, chymotrypsin (Bos taurus, UniProt P00766); assay: Chymotrypsin-Inhibitory Activity; assay type: biochemical, bovine; conditions: 1 × 10^-5 M; read-out: Inhibition rate, chymotrypsin
T3 construct: purchased Sigma; host or cells: bovine pancreas
Description: (§2) Similarly, by following the procedure mentioned above, but employing a 50 mM Tris-HCl buffer (pH 8.0) as a buffer for measurement, a 0.2 μM solution of chymotrypsin (derived from bovine pancrease, Sigma) in the same buffer as an enzyme solution and a 200 μM solution of 7-(N-succinyl-leucyl-leucyl-valyl-tyrosyl)-4-methylcoumarinamide (Peptide Institute, Inc.) in the same buffer as a substrate solution. Each fluorescence (c1, c2 and c3) was also determined, respectively.
as §1

trypsin = target: T4, trypsin (Bos taurus, UniProt P00760); assay: Trypsin-Inhibitory Activity; assay type: biochemical, bovine; conditions: 1 × 10^-5 M; read-out: Inhibition rate, trypsin
T4 construct: purchased Sigma; host or cells: bovine pancreas
T4 sequence (P00760 24-246): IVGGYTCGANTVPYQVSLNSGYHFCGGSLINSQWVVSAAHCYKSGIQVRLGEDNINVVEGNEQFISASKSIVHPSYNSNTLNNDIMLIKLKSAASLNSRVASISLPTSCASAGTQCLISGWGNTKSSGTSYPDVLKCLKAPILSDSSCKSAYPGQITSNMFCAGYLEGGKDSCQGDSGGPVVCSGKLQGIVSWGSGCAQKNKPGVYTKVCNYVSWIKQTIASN
Description: In the present invention, a 50 mM Tris-HCl buffer (pH 8.0) was employed as a buffer for measurement.
To a mixture of the above-mentioned buffer (850 μl), a solution of the compounds of the present invention in the same buffer (50 μl) and a 0.02 μM solution of trypsin (derived from bovine pancreas, Sigma) in the same buffer (50 μl) was added a 200 μM solution of 7-(prolyl-phenylaranyl-arginyl)-4-methylcoumarinamide (Peptide Institute, Inc.) in the same buffer (50 μl), and the mixture was incubated at 30° C. for 1 hour. The reaction mixture was immersed in ice (0° C.) to terminate the reaction, and the fluorescence (b1) was determined 1 hour later (excitation at 370 nm and emission at 440 nm). Concurrently, there were conducted the experiment wherein, in the system above, the trypsin solution was substituted for a buffer alone, and the experiment wherein the solution of the compounds of the present invention was also substituted for a buffer above. Each fluorescence (b2 and b3) was also determined respectively.
as §1

prolyl endopeptidase = target: T5, prolyl endopeptidase (Rattus norvegicus, UniProt O70196); assay: Prolyl Endopeptidase-Inhibitory Activity; assay type: biochemical; conditions: for inhibition at 10 µM: 1 × 10^-5 M, read-out: Inhibition rate, prolyl endopeptidase; for IC50: prolyl endopeptidase extracted from rat brain, pH 7.0, 30° C., preincubated 30 minutes, 1 hour
T5 construct: prolyl endopeptidase extracted from rat brain; from tissue; host or cells: rat brain
Description: A mixture of a 0.1M potassium sodium phosphate buffer (pH 7.0) (2675 μl), a solution of the compounds of the present invention in a 0.1M potassium sodium phosphate buffer (pH 7.0) (100 μl) and a solution of prolyl endopeptidase extracted from rat brain in a 25 mM sodium phosphate buffer (100 μl) [123 unit/1, pH 6.8, containing 1 mM dithiothreitol and 0.5 mM EDTA, prepared by the method described in J. Neurochem., 35, 527 (1980)] was preincubated at 30° C. for 30 minutes. Thereto was added a 0.2 mM solution of 7-(N-succinyl-glycyl-prolyl)-4-methylcoumarinamide (Peptide Institute, INC.) in a 0.1M potassium sodium phosphate buffer (pH 7.0) (125 μl), and the mixture was incubated at 30° C. for 1 hour. The reaction mixture was immersed in ice (0° C.) to terminate the reaction, and the fluorescence (a1) was determined ten minutes later (excitation at 370 nm and emission at 440 nm). Concurrently, there were conducted the experiment wherein, in the above system, the prolyl endopeptidase solution was substituted for a 25 mM sodium phosphate buffer (pH 6.8, containing 1 mM dithiothreitol and 0.5 mM EDTA) and the experiment wherein the solution of the compounds of the present invention was also substituted for a 0.1M potassium sodium phosphate buffer (pH 7.0). Each fluorescence (a2 and a3) was also determined respectively [See Tanpakushitsu Kakusan Koso, 29, 127 (1984)]. The prolyl endopeptidase-inhibition rate was calculated by the following formula, and IC50, a concentration of a compound producing 50% inhibition, was estimated by semilogarithmic graph paper. [formula]

leucine aminopeptidase = assay: Leucine Aminopeptidase-Inhibitory Activity; assay type: biochemical, swine; conditions: 1 × 10^-5 M
Description: as §2, with “leucine aminopeptidase” for “chymotrypsin”, “swine kidney,” for “bovine pancrease,”, “7-(leucyl-4-methylcoumarinamide” for “7-(N-succinyl-leucyl-leucyl-valyl-tyrosyl)-4-methylcoumarinamide”, “(d1, d2” for “(c1, c2”, “d3)” for “c3)”
as §1

T5 sequence (O70196 whole entry): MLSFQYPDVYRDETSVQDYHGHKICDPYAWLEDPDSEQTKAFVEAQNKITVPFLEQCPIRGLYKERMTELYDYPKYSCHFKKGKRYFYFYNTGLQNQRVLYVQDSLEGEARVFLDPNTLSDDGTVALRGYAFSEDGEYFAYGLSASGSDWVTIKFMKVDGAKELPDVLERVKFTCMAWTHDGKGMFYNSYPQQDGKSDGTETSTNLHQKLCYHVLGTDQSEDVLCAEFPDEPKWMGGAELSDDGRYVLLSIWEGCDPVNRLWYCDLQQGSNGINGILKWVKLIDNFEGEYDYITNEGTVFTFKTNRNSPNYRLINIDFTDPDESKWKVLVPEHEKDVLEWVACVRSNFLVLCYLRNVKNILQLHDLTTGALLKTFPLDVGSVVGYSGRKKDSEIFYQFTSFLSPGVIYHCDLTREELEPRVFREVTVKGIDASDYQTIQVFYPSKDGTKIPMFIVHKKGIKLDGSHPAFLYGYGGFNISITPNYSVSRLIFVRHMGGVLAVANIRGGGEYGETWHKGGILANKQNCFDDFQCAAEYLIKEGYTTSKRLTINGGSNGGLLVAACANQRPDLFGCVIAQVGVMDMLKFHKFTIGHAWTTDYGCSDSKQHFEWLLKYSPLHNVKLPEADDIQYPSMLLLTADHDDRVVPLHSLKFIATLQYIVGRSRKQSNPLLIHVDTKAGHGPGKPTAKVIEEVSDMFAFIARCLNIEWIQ
T1 sequence (P00772 27-266): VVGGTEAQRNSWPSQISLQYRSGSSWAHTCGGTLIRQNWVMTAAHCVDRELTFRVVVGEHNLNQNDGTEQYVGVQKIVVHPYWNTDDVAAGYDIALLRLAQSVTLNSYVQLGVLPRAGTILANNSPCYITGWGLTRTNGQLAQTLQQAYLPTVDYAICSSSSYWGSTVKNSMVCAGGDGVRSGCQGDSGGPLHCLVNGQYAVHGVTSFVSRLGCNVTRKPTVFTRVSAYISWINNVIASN

Row | Compound | inhibition at 10 µM (elastase) [%] | inhibition at 10 µM (cathepsin B) [%] | inhibition at 10 µM (chymotrypsin) [%] | inhibition at 10 µM (trypsin) [%] | inhibition at 10 µM (prolyl endopeptidase) [%] | IC50 (prolyl endopeptidase) [nM] | Inhibition rate, leucine aminopeptidase (leucine aminopeptidase) [%]
1 | O=C1CCCN1CC(=O)N1CSC[C@H]1C(=O)N1CCSC1 [Compound 9, 3-{N-[(2-Oxo-1-pyrrolidinyl)acetyl]-L-thioprolyl}thiazolidine] | 0 | 0 | 0 | 0 | 97 | 150 | 0
2 | O=C([C@@H]1CCCN1C(=O)OCc1ccccc1)N1CCC[C@H]1C=NO [Compound 12, (2S)-1-(N-Benzyloxycarbonyl-L-prolyl)-2-pyrrolidinecarboxaldehyde oxime] | 0 | 0 | 0 | 0 | 100 | 450 | 0
